For one molecule, IC50, Activity and Ratio IC50 results are on record in ChEMBL document CHEMBL1150959 (J Nat Prod, 1998).

The IC50 is the midpoint of a concentration-inhibition curve.

The structures appear in SMILES notation. The source made the active and inactive calls. The calls are words filed in the database; no cut-off is given here.

The target in assay [1] is Prostaglandin G/H synthase 1 (Bos taurus) (UniProt O62698). Briefly: Inhibition of COX1-catalyzed prostaglandin biosynthesis 10 mins of preincubation.
Sequence of Prostaglandin G/H synthase 1 (Bos taurus) (O62698 whole entry, looked up): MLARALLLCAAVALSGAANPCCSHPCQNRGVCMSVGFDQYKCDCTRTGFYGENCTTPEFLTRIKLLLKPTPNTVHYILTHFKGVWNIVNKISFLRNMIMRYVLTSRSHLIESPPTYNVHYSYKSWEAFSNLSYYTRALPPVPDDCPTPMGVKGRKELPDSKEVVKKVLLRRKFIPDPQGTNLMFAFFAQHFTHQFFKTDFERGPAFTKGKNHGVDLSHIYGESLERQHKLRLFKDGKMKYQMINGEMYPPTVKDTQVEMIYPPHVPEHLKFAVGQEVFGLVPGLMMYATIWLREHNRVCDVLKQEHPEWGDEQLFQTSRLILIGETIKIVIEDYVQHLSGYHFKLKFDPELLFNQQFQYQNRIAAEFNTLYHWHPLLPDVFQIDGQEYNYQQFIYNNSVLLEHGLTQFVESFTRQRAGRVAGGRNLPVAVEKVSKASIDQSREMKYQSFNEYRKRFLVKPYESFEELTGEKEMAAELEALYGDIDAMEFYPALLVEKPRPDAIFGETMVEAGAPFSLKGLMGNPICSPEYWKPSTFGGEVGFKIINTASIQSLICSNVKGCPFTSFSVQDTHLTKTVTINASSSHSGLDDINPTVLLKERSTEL
For assay [2] the target is unchanged. Briefly: Inhibition of COX1-catalyzed prostaglandin biosynthesis at 100 ug/ml without preincubation.
The target is the same in assay [3]. Briefly: Inhibition of COX1-catalyzed prostaglandin biosynthesis at 200 ug/ml without preincubation. To be noted: TDE = time-dependent effect.
A short description of assay [4]: Ratio of IC50 for COX2 to IC50 for COX1.

The molecule `C[C@H]1[C@H](C)CC[C@]2(C(=O)O)CC[C@]3(C)C(=CC[C@@H]4[C@@]5(C)CC[C@H](O)C(C)(C)[C@@H]5CC[C@]43C)[C@H]12` [URSOLIC ACID] had a half-inhibitory concentration (IC50) in assay [1] of 210 µM. In addition, the result in assay [2] was Active. Besides, the Activity result in assay [3] was “tde”. The Ratio IC50 in assay [4] was 0.6.
